In PMC5218480 (PLoS ONE, 2017):

Tested on: MV-4-11 cells
Experiment: Gene expression microarray analysis (Affymetrix PrimeView) and GSEA
Type: cell-based, human
Set-up: RFU PODN (11730768_x_at) / Fold change /veh PODN (11730768_x_at) / RFU LINC00158 (11744669_a_at) / Fold change /veh LINC00158 (11744669_a_at) / RFU DUSP10 (11751237_a_at) / Fold change /veh DUSP10 (11751237_a_at) / RFU ID3 (11757404_x_at) / Fold change /veh ID3 (11757404_x_at) / RFU PLEKHG5 (11737974_s_at) / Fold change /veh PLEKHG5 (11737974_s_at) / RFU LRRC4B (11730491_at) / Fold change /veh LRRC4B (11730491_at) / RFU GIMAP4 (11747438_a_at) / Fold change /veh GIMAP4 (11747438_a_at) / RFU KRT8 (11758183_x_at) / Fold change /veh KRT8 (11758183_x_at) / RFU CNN1 (11734310_a_at) / Fold change /veh CNN1 (11734310_a_at) / RFU VPS37D (11726825_at) / Fold change /veh VPS37D (11726825_at) / RFU C10orf10 (11716522_x_at) / Fold change /veh C10orf10 (11716522_x_at) / RFU KIR2DL2 /// KIR2DL4 /// KIR2DL5A /// KIR2DL5B /// KIR2DS1 /// KIR2DS2 /// KIR2DS3 /// KIR2DS4 /// KIR3DL3 /// KIR3DL3 /// KIR3DS1 (11738374_at) / Fold change /veh KIR2DL2 /// KIR2DL4 /// KIR2DL5A /// KIR2DL5B /// KIR2DS1 /// KIR2DS2 /// KIR2DS3 /// KIR2DS4 /// KIR3DL3 /// KIR3DL3 /// KIR3DS1 (11738374_at) / RFU C1QL1 (11718748_at) / Fold change /veh C1QL1 (11718748_at) / RFU TMPRSS4 (11747572_a_at) / Fold change /veh TMPRSS4 (11747572_a_at) / RFU HAMP (11756126_x_at) / Fold change /veh HAMP (11756126_x_at) / RFU RNFT2 (11725882_a_at) / Fold change /veh RNFT2 (11725882_a_at) / RFU NR4A2 (11747474_a_at) / Fold change /veh NR4A2 (11747474_a_at) / RFU ABCC12 (11746883_a_at) / Fold change /veh ABCC12 (11746883_a_at) / RFU TMEM136 (11760407_x_at) / Fold change /veh TMEM136 (11760407_x_at) / RFU CLDN22 /// WWC2 (11732394_at) / Fold change /veh CLDN22 /// WWC2 (11732394_at) / RFU HLA-DPB1 (11760878_x_at) / Fold change /veh HLA-DPB1 (11760878_x_at) / RFU SPINT1 (11716480_a_at) / Fold change /veh SPINT1 (11716480_a_at) / RFU GAP43 (11754022_s_at) / Fold change /veh GAP43 (11754022_s_at) / RFU A4GNT (11735810_at) / Fold change /veh A4GNT (11735810_at) / RFU PRB3 (11715151_x_at) / Fold change /veh PRB3 (11715151_x_at) / RFU TUBB4B (11761932_at) / Fold change /veh TUBB4B (11761932_at) / RFU CAPN14 (11732068_a_at) / Fold change /veh CAPN14 (11732068_a_at) / RFU TMCC2 (11721928_a_at) / Fold change /veh TMCC2 (11721928_a_at) / RFU IRGQ (11745062_a_at) / Fold change /veh IRGQ (11745062_a_at) / RFU FAM174B (11720279_a_at) / Fold change /veh FAM174B (11720279_a_at) / RFU TMPRSS4 (11748680_a_at) / Fold change /veh TMPRSS4 (11748680_a_at) / RFU FAM212B (11763350_a_at) / Fold change /veh FAM212B (11763350_a_at) / RFU PLEKHG5 (11743358_a_at) / Fold change /veh PLEKHG5 (11743358_a_at) / RFU ZSCAN30 (11745921_a_at) / Fold change /veh ZSCAN30 (11745921_a_at) / RFU CMKLR1 (11741424_a_at) / Fold change /veh CMKLR1 (11741424_a_at) / RFU LOC101060620 /// MAPK8IP1 (11723275_at) / Fold change /veh LOC101060620 /// MAPK8IP1 (11723275_at) / RFU SPTSSB (11747773_x_at) / Fold change /veh SPTSSB (11747773_x_at) / RFU PRSS12 (11739890_at) / Fold change /veh PRSS12 (11739890_at) / RFU BIN1 (11741810_x_at) / Fold change /veh BIN1 (11741810_x_at) / RFU WNT11 (11732464_a_at) / Fold change /veh WNT11 (11732464_a_at) / RFU C10orf10 (11716521_a_at) / Fold change /veh C10orf10 (11716521_a_at) / RFU C5orf56 (11738089_at) / Fold change /veh C5orf56 (11738089_at) / RFU CYB561 (11721691_x_at) / Fold change /veh CYB561 (11721691_x_at) / RFU ANKRD19P (11752326_a_at) / Fold change /veh ANKRD19P (11752326_a_at) / RFU OR2T12 /// OR2T33 /// OR2T8 (11738714_s_at) / Fold change /veh OR2T12 /// OR2T33 /// OR2T8 (11738714_s_at) / RFU VCAN (11748164_a_at) / Fold change /veh VCAN (11748164_a_at) / RFU JSRP1 (11732532_at) / Fold change /veh JSRP1 (11732532_at) / RFU KRTAP10-11 (11738290_x_at) / Fold change /veh KRTAP10-11 (11738290_x_at) / RFU MYO3A (11730013_a_at) / Fold change /veh MYO3A (11730013_a_at) / RFU EBF3 (11725865_a_at) / Fold change /veh EBF3 (11725865_a_at) / RFU CAMK2N1 (11719241_x_at) / Fold change /veh CAMK2N1 (11719241_x_at) / RFU C5orf56 (11738088_a_at) / Fold change /veh C5orf56 (11738088_a_at) / RFU OLFML3 (11715873_a_at) / Fold change /veh OLFML3 (11715873_a_at) / RFU LOC100653217 /// NTM (11731650_a_at) / Fold change /veh LOC100653217 /// NTM (11731650_a_at) / RFU MAPK11 (11762145_a_at) / Fold change /veh MAPK11 (11762145_a_at) / RFU FIZ1 (11724087_x_at) / Fold change /veh FIZ1 (11724087_x_at) / RFU OASL (11726364_x_at) / Fold change /veh OASL (11726364_x_at) / RFU SOX15 (11748057_x_at) / Fold change /veh SOX15 (11748057_x_at) / RFU CD79A (11719716_a_at) / Fold change /veh CD79A (11719716_a_at) / RFU HIST1H1D (11736915_at) / Fold change /veh HIST1H1D (11736915_at) / RFU CASKIN2 (11723855_a_at) / Fold change /veh CASKIN2 (11723855_a_at) / RFU LOC730098 (11760151_x_at) / Fold change /veh LOC730098 (11760151_x_at) / RFU OR4N2 (11742367_at) / Fold change /veh OR4N2 (11742367_at) / RFU PRRT2 (11749266_a_at) / Fold change /veh PRRT2 (11749266_a_at) / RFU SNX32 (11753110_a_at) / Fold change /veh SNX32 (11753110_a_at) / RFU CDHR5 (11726645_a_at) / Fold change /veh CDHR5 (11726645_a_at) / RFU RCAN1 (11760418_a_at) / Fold change /veh RCAN1 (11760418_a_at) / RFU FAM167A (11723789_a_at) / Fold change /veh FAM167A (11723789_a_at) / RFU FAM26E (11764081_at) / Fold change /veh FAM26E (11764081_at) / RFU ISYNA1 (11749810_s_at) / Fold change /veh ISYNA1 (11749810_s_at) / RFU ACY1 (11761880_at) / Fold change /veh ACY1 (11761880_at) / RFU 11764098_at / Fold change /veh 11764098_at / RFU SAMD14 (11745864_x_at) / Fold change /veh SAMD14 (11745864_x_at) / RFU NPB (11741838_a_at) / Fold change /veh NPB (11741838_a_at) / RFU TMPRSS6 (11731388_a_at) / Fold change /veh TMPRSS6 (11731388_a_at) / RFU KRTAP10-2 (11738614_at) / Fold change /veh KRTAP10-2 (11738614_at) / RFU ARHGAP8 /// PRR5-ARHGAP8 (11727945_x_at) / Fold change /veh ARHGAP8 /// PRR5-ARHGAP8 (11727945_x_at) / RFU KRTAP5-7 /// NADSYN1 (11734609_at) / Fold change /veh KRTAP5-7 /// NADSYN1 (11734609_at) / RFU RASL12 (11751679_a_at) / Fold change /veh RASL12 (11751679_a_at) / RFU CDKN2B (11736163_a_at) / Fold change /veh CDKN2B (11736163_a_at) / RFU PRF1 (11729649_at) / Fold change /veh PRF1 (11729649_at) / RFU, ZNF638 /// ZNF638-IT1 / Fold change vs veh, ZNF638 /// ZNF638-IT1 / RFU, PANK3 / Fold change vs veh, PANK3 / RFU, SH3YL1 / Fold change vs veh, SH3YL1 / RFU, ZEB2 / Fold change vs veh, ZEB2 / RFU, NRIP1 / Fold change vs veh, NRIP1 / RFU, PTTG1IP / Fold change vs veh, PTTG1IP / RFU, CAPN2 / Fold change vs veh, CAPN2 / RFU, MED14 / Fold change vs veh, MED14 / RFU, SNORA58 / Fold change vs veh, SNORA58 / RFU, C1orf63 / Fold change vs veh, C1orf63 / RFU, LRRFIP1 / Fold change vs veh, LRRFIP1 / RFU, NDUFAF7 / Fold change vs veh, NDUFAF7 / RFU, SLC12A2 / Fold change vs veh, SLC12A2 / RFU, IBTK / Fold change vs veh, IBTK / RFU, ESF1 / Fold change vs veh, ESF1 / Fold change vs veh, TMEM50B / RFU, TAOK1 / Fold change vs veh, TAOK1 / RFU, ACBD3 / Fold change vs veh, ACBD3 / RFU, TMA16 / Fold change vs veh, TMA16 / RFU, RWDD3 / Fold change vs veh, RWDD3 / RFU, BCAT1 / Fold change vs veh, BCAT1 / RFU, EDEM3 / Fold change vs veh, EDEM3 / RFU, TMEM33 / Fold change vs veh, TMEM33 / RFU, WDR75 / Fold change vs veh, WDR75 / RFU, AHCTF1 / Fold change vs veh, AHCTF1 / RFU, TFRC / Fold change vs veh, TFRC / RFU, ZDHHC17 / Fold change vs veh, ZDHHC17 / RFU, NOM1 / Fold change vs veh, NOM1 / RFU, ARL8B / Fold change vs veh, ARL8B / RFU, ZBTB11 / Fold change vs veh, ZBTB11 / RFU, TAMM41 / Fold change vs veh, TAMM41 / RFU, KIAA1704 /// LOC100996395 / Fold change vs veh, KIAA1704 /// LOC100996395 / RFU, ING1 / Fold change vs veh, ING1 / RFU, TRMT61B / Fold change vs veh, TRMT61B / RFU, FUBP3 / Fold change vs veh, FUBP3 / RFU, TP53 / Fold change vs veh, TP53 / RFU, TNKS2 / Fold change vs veh, TNKS2 / RFU, ZFP14 / Fold change vs veh, ZFP14 / RFU, ACTR2 / Fold change vs veh, ACTR2 / RFU, PPP3R1 / Fold change vs veh, PPP3R1 / RFU, PIK3R1 / Fold change vs veh, PIK3R1 / RFU, HNRNPA1 / Fold change vs veh, HNRNPA1 / RFU, RNF170 / Fold change vs veh, RNF170 / RFU, ZNF28 / Fold change vs veh, ZNF28 / RFU, RNGTT / Fold change vs veh, RNGTT / RFU, OGT / Fold change vs veh, OGT / RFU, BRD1 / Fold change vs veh, BRD1 / RFU, MARS / Fold change vs veh, MARS / RFU, ZNF655 / Fold change vs veh, ZNF655 / RFU, FAHD1 / Fold change vs veh, FAHD1 / RFU, BDP1 / Fold change vs veh, BDP1 / RFU, LRRCC1 / Fold change vs veh, LRRCC1 / RFU, ARID1A / Fold change vs veh, ARID1A / RFU, ZNF146 / Fold change vs veh, ZNF146 / RFU, ZNF330 / Fold change vs veh, ZNF330 / RFU, GPN3 / Fold change vs veh, GPN3 / RFU, C9orf123 / Fold change vs veh, C9orf123 / RFU, N4BP2L2 / Fold change vs veh, N4BP2L2 / RFU, ARFIP1 / Fold change vs veh, ARFIP1 / RFU, FAM179B / Fold change vs veh, FAM179B / RFU, BCL10 / Fold change vs veh, BCL10 / RFU, UHRF1BP1L / Fold change vs veh, UHRF1BP1L / RFU, BET1 / Fold change vs veh, BET1 / RFU, CNOT2 / Fold change vs veh, CNOT2 / RFU, ZNF268 / Fold change vs veh, ZNF268 / Fold change vs veh, ZNF507 / RFU, DGCR2 / Fold change vs veh, DGCR2 / RFU, WDSUB1 / Fold change vs veh, WDSUB1 / Fold change vs veh, HSP90B1 /// MIR3652 / RFU, ADSS / Fold change vs veh, ADSS / RFU, GK / Fold change vs veh, GK / RFU, ZNF148 / Fold change vs veh, ZNF148 / RFU, TAF9 / Fold change vs veh, TAF9 / RFU, SLC1A5 / Fold change vs veh, SLC1A5 / RFU, SLMO2 / Fold change vs veh, SLMO2 / RFU, ABCC4 / Fold change vs veh, ABCC4 / RFU, LOC101060439 /// RAP1B / Fold change vs veh, LOC101060439 /// RAP1B / RFU, RFX7 / Fold change vs veh, RFX7 / RFU, GTPBP10 / Fold change vs veh, GTPBP10 / RFU, CNEP1R1 / Fold change vs veh, CNEP1R1 / RFU, BIVM-ERCC5 /// ERCC5 / Fold change vs veh, BIVM-ERCC5 /// ERCC5 / RFU, ILF3 / Fold change vs veh, ILF3 / RFU 11762660_at / Fold change /veh 11762660_at / RFU VCAN (11757783_s_at) / Fold change /veh VCAN (11757783_s_at) / RFU DDX43 (11728927_at) / Fold change /veh DDX43 (11728927_at) / RFU KRT8 (11758188_x_at) / Fold change /veh KRT8 (11758188_x_at) / RFU NKD1 (11759106_at) / Fold change /veh NKD1 (11759106_at) / RFU SRD5A1 (11742802_a_at) / Fold change /veh SRD5A1 (11742802_a_at) / RFU TPSAB1 /// TPSB2 (11721975_s_at) / Fold change /veh TPSAB1 /// TPSB2 (11721975_s_at) / RFU GSTM3 (11746129_a_at) / Fold change /veh GSTM3 (11746129_a_at) / RFU IL23R (11737362_x_at) / Fold change /veh IL23R (11737362_x_at) / RFU TMEM51 (11727254_a_at) / Fold change /veh TMEM51 (11727254_a_at) / RFU PIWIL2 (11732686_x_at) / Fold change /veh PIWIL2 (11732686_x_at) / RFU ORM1 (11744905_x_at) / Fold change /veh ORM1 (11744905_x_at) / RFU CCDC152 (11743942_at) / Fold change /veh CCDC152 (11743942_at) / RFU ECM1 (11717891_a_at) / Fold change /veh ECM1 (11717891_a_at) / RFU IL23R (11748794_a_at) / Fold change /veh IL23R (11748794_a_at) / RFU TNFAIP8L3 (11732012_x_at) / Fold change /veh TNFAIP8L3 (11732012_x_at) / RFU MBOAT4 (11741988_at) / Fold change /veh MBOAT4 (11741988_at) / RFU 11764193_at / Fold change /veh 11764193_at / RFU TMEM53 (11763286_at) / Fold change /veh TMEM53 (11763286_at) / RFU MAGEB2 (11727129_at) / Fold change /veh MAGEB2 (11727129_at) / RFU TMEM200A (11744735_a_at) / Fold change /veh TMEM200A (11744735_a_at) / RFU CCDC152 (11751479_a_at) / Fold change /veh CCDC152 (11751479_a_at) / RFU FAM211A (11726209_a_at) / Fold change /veh FAM211A (11726209_a_at) / RFU RGS16 (11746705_a_at) / Fold change /veh RGS16 (11746705_a_at) / RFU VCAN (11755009_s_at) / Fold change /veh VCAN (11755009_s_at) / RFU RHOB (11743442_s_at) / Fold change /veh RHOB (11743442_s_at) / RFU RGS16 (11720943_a_at) / Fold change /veh RGS16 (11720943_a_at) / RFU RGS16 (11720944_at) / Fold change /veh RGS16 (11720944_at) / RFU, VPS4B / Fold change vs veh, VPS4B / RFU, CREB1 / Fold change vs veh, CREB1 / RFU, DNAJC13 / Fold change vs veh, DNAJC13 / RFU, GNAQ / Fold change vs veh, GNAQ / RFU, CDK5R1 / Fold change vs veh, CDK5R1 / RFU, ZRANB3 / Fold change vs veh, ZRANB3 / RFU, CUL4A / Fold change vs veh, CUL4A / RFU, CCNY / Fold change vs veh, CCNY / RFU, UFL1 / Fold change vs veh, UFL1 / RFU, COG3 / Fold change vs veh, COG3 / RFU, DIAPH2 / Fold change vs veh, DIAPH2 / RFU, SKA2 / Fold change vs veh, SKA2 / RFU, AFF3 / Fold change vs veh, AFF3 / RFU, LMF1 / Fold change vs veh, LMF1 / RFU, IPO11 / Fold change vs veh, IPO11 / RFU, DFFB / Fold change vs veh, DFFB / RFU, FOXP1 / Fold change vs veh, FOXP1 / RFU, CARD8 / Fold change vs veh, CARD8 / RFU, STRN3 / Fold change vs veh, STRN3 / RFU, ADK / Fold change vs veh, ADK / RFU, RASSF2 / Fold change vs veh, RASSF2 / RFU, WIPF1 / Fold change vs veh, WIPF1 / RFU, LARP1B / Fold change vs veh, LARP1B / RFU, RASA1 / Fold change vs veh, RASA1 / RFU, RB1 / Fold change vs veh, RB1 / RFU, PPFIA1 / Fold change vs veh, PPFIA1 / RFU, MAT2A / Fold change vs veh, MAT2A / RFU, CCT5 / Fold change vs veh, CCT5 / RFU, WDR92 / Fold change vs veh, WDR92 / RFU, CUX1 / Fold change vs veh, CUX1 / RFU, TTC7A / Fold change vs veh, TTC7A / RFU, TMEM135 / Fold change vs veh, TMEM135 / RFU, DEPTOR / Fold change vs veh, DEPTOR / RFU, CPM / Fold change vs veh, CPM / RFU, DNAJB6 / Fold change vs veh, DNAJB6 / RFU, CACNA2D3 / Fold change vs veh, CACNA2D3 / RFU, DTX4 / Fold change vs veh, DTX4 / RFU, TFCP2 / Fold change vs veh, TFCP2 / RFU, GMCL1 /// GMCL1P1 / Fold change vs veh, GMCL1 /// GMCL1P1 / RFU, AEBP2 / Fold change vs veh, AEBP2 / RFU, SNHG1 /// SNORD22 /// SNORD25 /// SNORD26 /// SNORD27 /// SNORD28 /// SNORD29 /// SNORD31 / Fold change vs veh, SNHG1 /// SNORD22 /// SNORD25 /// SNORD26 /// SNORD27 /// SNORD28 /// SNORD29 /// SNORD31 / Fold change (Aza/veh), C12orf56 (ProbeSet 11735607_a_at) / Fold change (ACY-1035/veh), C12orf56 (ProbeSet 11735607_a_at) / Fold change (Aza/veh), FGFR1OP (ProbeSet 11751329_s_at) / Fold change (ACY-1035/veh), FGFR1OP (ProbeSet 11751329_s_at) / Fold change (Aza/veh), VPS36 (ProbeSet 11739960_a_at) / Fold change (ACY-1035/veh), VPS36 (ProbeSet 11739960_a_at) / RFU SYPL1 (11715823_x_at) / Fold change /veh SYPL1 (11715823_x_at) / RFU IGFBP7 (11715501_s_at) / Fold change /veh IGFBP7 (11715501_s_at) / RFU REEP3 (11722064_at) / Fold change /veh REEP3 (11722064_at) / RFU IGLL1 (11728026_x_at) / Fold change /veh IGLL1 (11728026_x_at): dose or concentration left out as unconfirmed
Conditions: MV-4-11 cells, 48 hours

SMILES: Nc1ccc(-c2cccs2)cc1NC(=O)c1ccc2c(c1)cc(C1CC1)n2CCN1CCOCC1 [ACY-1035]
- Fold change /veh CCDC152 (11743942_at): 1.01
